Results on 38 substances are retold here after patent publication US8969516B2, “Method of hydrolysis of peptide bond” (priority 2006, dated 2015).

This series is described as follows: MALDI-TOF screening of Ni^2+ dependent hydrolysis in a combinatorial peptide library. Format: physicochemical. Conditions: CH3CO-Gly-Ala-Ser-X-His-Z-Lys-Phe-Leu-NH2 library, Ni^2+ 2 mM, pH 8.2, 10 mM Tris, score=24/tm. A digest of the protocol: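 Peptide sublibraries CH3CO-Gly-Ala-Ser/Thr-X-His-Z-Lys-Phe-Leu-NH2 (1 mM total) incubated with 2 mM Ni^2+ in 10 mM Tris pH 8.2 at 37 °C and 45 °C. Hydrolysis products, plus loss of substrate signals, detected by MALDI-TOF at 2, 4, 6 and 8 h; residues X and Z scored and ranked.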

For Ac-GASLHLKFL-NH2 [SLHL], the “hydrolysis score from MALDI-TOF screening” value (from here on “hydrolysis score”) is, setting by setting: (37° C.) 3 (a score of 3 for detection at 8 hours); (45° C.) 0 (a score of 0 if no trace of the product of hydrolysis was seen after 8 hours of incubation).

Consider Ac-GASLHMKFL-NH2 [SLHM], for which the “hydrolysis score” value is, setting by setting: (37° C.) 0 (a score of 0 if no trace of the product of hydrolysis was seen after 8 hours of incubation); (45° C.) 0 (a score of 0 if no trace of the product of hydrolysis was seen after 8 hours of incubation).

As for Ac-GASLHNKFL-NH2 [SLHN], the “hydrolysis score” value reads like this: (37° C.) 0 (a score of 0 if no trace of the product of hydrolysis was seen after 8 hours of incubation); (45° C.) 0 (a score of 0 if no trace of the product of hydrolysis was seen after 8 hours of incubation).

In the case of Ac-GASLHPKFL-NH2 [SLHP], the “hydrolysis score” value reads like this: (37° C.) 0 (a score of 0 if no trace of the product of hydrolysis was seen after 8 hours of incubation); (45° C.) 0 (a score of 0 if no trace of the product of hydrolysis was seen after 8 hours of incubation).

Consider Ac-GASLHQKFL-NH2 [SLHQ], for which the “hydrolysis score” value reads like this: (37° C.) 0 (a score of 0 if no trace of the product of hydrolysis was seen after 8 hours of incubation); (45° C.) 0 (a score of 0 if no trace of the product of hydrolysis was seen after 8 hours of incubation).

Consider Ac-GASLHRKFL-NH2 [SLHR], for which the “hydrolysis score” value by setting is: (37° C.) 3 (a score of 3 for detection at 8 hours); (45° C.) 4 (a score of 4 for detection at 6 hours).

Consider Ac-GASLHSKFL-NH2 [SLHS], for which the “hydrolysis score” value is, setting by setting: (37° C.) 0 (a score of 0 if no trace of the product of hydrolysis was seen after 8 hours of incubation); (45° C.) 0 (a score of 0 if no trace of the product of hydrolysis was seen after 8 hours of incubation).

With Ac-GASLHTKFL-NH2 [SLHT], the “hydrolysis score” value is given as 0 (a score of 0 if no trace of the product of hydrolysis was seen after 8 hours of incubation) (37° C.) and 0 (a score of 0 if no trace of the product of hydrolysis was seen after 8 hours of incubation) (45° C.).

Consider Ac-GASLHVKFL-NH2 [SLHV], for which the “hydrolysis score” value by setting is: (37° C.) 0 (a score of 0 if no trace of the product of hydrolysis was seen after 8 hours of incubation); (45° C.) 3 (a score of 3 for detection at 8 hours).

On to Ac-GASLHWKFL-NH2 [SLHW], for which the “hydrolysis score” value reads like this: (37° C.) 3 (a score of 3 for detection at 8 hours); (45° C.) 4 (a score of 4 for detection at 6 hours).

Take Ac-GASLHYKFL-NH2 [SLHY]: the “hydrolysis score” value is, setting by setting: (37° C.) 0 (a score of 0 if no trace of the product of hydrolysis was seen after 8 hours of incubation); (45° C.) 3 (a score of 3 for detection at 8 hours).

Turning to Ac-GASMHAKFL-NH2 [SMHA], the “hydrolysis score” value (37° C.) was 0 (a score of 0 if no trace of the product of hydrolysis was seen after 8 hours of incubation) and the “hydrolysis score” value (45° C.) is 3 (a score of 3 for detection at 8 hours).

In the case of Ac-GASMHDKFL-NH2 [SMHD], the “hydrolysis score” value is, setting by setting: (37° C.) 0 (a score of 0 if no trace of the product of hydrolysis was seen after 8 hours of incubation); (45° C.) 0 (a score of 0 if no trace of the product of hydrolysis was seen after 8 hours of incubation).

For Ac-GASMHEKFL-NH2 [SMHE], the “hydrolysis score” value is 0 (a score of 0 if no trace of the product of hydrolysis was seen after 8 hours of incubation) (37° C.) and 0 (a score of 0 if no trace of the product of hydrolysis was seen after 8 hours of incubation) (45° C.).

Ac-GASMHFKFL-NH2 [SMHF]: the “hydrolysis score” value reads like this: (37° C.) 3 (a score of 3 for detection at 8 hours); (45° C.) 4 (a score of 4 for detection at 6 hours).

Regarding Ac-GASMHGKFL-NH2 [SMHG], the “hydrolysis score” value is listed as 0 (a score of 0 if no trace of the product of hydrolysis was seen after 8 hours of incubation) (37° C.) and 0 (a score of 0 if no trace of the product of hydrolysis was seen after 8 hours of incubation) (45° C.).

Regarding Ac-GASMHHKFL-NH2 [SMHH], the “hydrolysis score” value runs as follows: (37° C.) 0 (a score of 0 if no trace of the product of hydrolysis was seen after 8 hours of incubation); (45° C.) 3 (a score of 3 for detection at 8 hours).

Ac-GASMHIKFL-NH2 [SMHI]: the “hydrolysis score” value reads like this: (37° C.) 4 (a score of 4 for detection at 6 hours); (45° C.) 12 (a score of 12, if it was seen to be partially hydrolysed at 2 hours).

Ac-GASMHKKFL-NH2 [SMHK]: the “hydrolysis score” value by setting is: (37° C.) 3 (a score of 3 for detection at 8 hours); (45° C.) 6 (a score of 6 for detection at 4 hours).

As to Ac-GASMHLKFL-NH2 [SMHL], the “hydrolysis score” value (37° C.) is listed as 4 (a score of 4 for detection at 6 hours) and the “hydrolysis score” value (45° C.) was 12 (a score of 12, if it was seen to be partially hydrolysed at 2 hours).

Take Ac-GASMHMKFL-NH2 [SMHM]: the “hydrolysis score” value is, setting by setting: (37° C.) 3 (a score of 3 for detection at 8 hours); (45° C.) 3 (a score of 3 for detection at 8 hours).

Turning to Ac-GASMHNKFL-NH2 [SMHN], the “hydrolysis score” value reads like this: (37° C.) 0 (a score of 0 if no trace of the product of hydrolysis was seen after 8 hours of incubation); (45° C.) 0 (a score of 0 if no trace of the product of hydrolysis was seen after 8 hours of incubation).

In the case of Ac-GASMHPKFL-NH2 [SMHP], the “hydrolysis score” value was 0 (a score of 0 if no trace of the product of hydrolysis was seen after 8 hours of incubation) (37° C.) and 0 (a score of 0 if no trace of the product of hydrolysis was seen after 8 hours of incubation) (45° C.).

Turning to Ac-GASMHQKFL-NH2 [SMHQ], the “hydrolysis score” value is on record as 0 (a score of 0 if no trace of the product of hydrolysis was seen after 8 hours of incubation) (37° C.) and 0 (a score of 0 if no trace of the product of hydrolysis was seen after 8 hours of incubation) (45° C.).

Turning to Ac-GASMHRKFL-NH2 [SMHR], the “hydrolysis score” value is recorded as 4 (a score of 4 for detection at 6 hours) (37° C.) and 6 (a score of 6 for detection at 4 hours) (45° C.).

For the substance Ac-GASMHSKFL-NH2 [SMHS], the “hydrolysis score” value is 0 (a score of 0 if no trace of the product of hydrolysis was seen after 8 hours of incubation) (37° C.) and 3 (a score of 3 for detection at 8 hours) (45° C.).

As for Ac-GASMHTKFL-NH2 [SMHT], the “hydrolysis score” value reads like this: (37° C.) 0 (a score of 0 if no trace of the product of hydrolysis was seen after 8 hours of incubation); (45° C.) 0 (a score of 0 if no trace of the product of hydrolysis was seen after 8 hours of incubation).

Ac-GASMHVKFL-NH2 [SMHV]: the “hydrolysis score” value (37° C.) is given as 3 (a score of 3 for detection at 8 hours) and the “hydrolysis score” value (45° C.) is on record as 6 (a score of 6 for detection at 4 hours).

As for Ac-GASMHWKFL-NH2 [SMHW], the “hydrolysis score” value is, setting by setting: (37° C.) 4 (a score of 4 for detection at 6 hours); (45° C.) 6 (a score of 6 for detection at 4 hours).

With Ac-GASMHYKFL-NH2 [SMHY], the “hydrolysis score” value was 3 (a score of 3 for detection at 8 hours) (37° C.) and 4 (a score of 4 for detection at 6 hours) (45° C.).

For Ac-GASNHAKFL-NH2 [SNHA], the “hydrolysis score” value is 0 (a score of 0 if no trace of the product of hydrolysis was seen after 8 hours of incubation) (37° C.) and 0 (a score of 0 if no trace of the product of hydrolysis was seen after 8 hours of incubation) (45° C.).

Turning to Ac-GASNHDKFL-NH2 [SNHD], the “hydrolysis score” value by setting is: (37° C.) 0 (a score of 0 if no trace of the product of hydrolysis was seen after 8 hours of incubation); (45° C.) 0 (a score of 0 if no trace of the product of hydrolysis was seen after 8 hours of incubation).

As for Ac-GASNHEKFL-NH2 [SNHE], the “hydrolysis score” value was 0 (a score of 0 if no trace of the product of hydrolysis was seen after 8 hours of incubation) (37° C.) and 0 (a score of 0 if no trace of the product of hydrolysis was seen after 8 hours of incubation) (45° C.).

With Ac-GASNHFKFL-NH2 [SNHF], the “hydrolysis score” value is 3 (a score of 3 for detection at 8 hours) (37° C.) and 3 (a score of 3 for detection at 8 hours) (45° C.).

With Ac-GASNHGKFL-NH2 [SNHG], the “hydrolysis score” value is on record as 0 (a score of 0 if no trace of the product of hydrolysis was seen after 8 hours of incubation) (37° C.) and 0 (a score of 0 if no trace of the product of hydrolysis was seen after 8 hours of incubation) (45° C.).

For Ac-GASNHHKFL-NH2 [SNHH], the “hydrolysis score” value by setting is: (37° C.) 0 (a score of 0 if no trace of the product of hydrolysis was seen after 8 hours of incubation); (45° C.) 3 (a score of 3 for detection at 8 hours).

Turning to Ac-GASNHIKFL-NH2 [SNHI], the “hydrolysis score” value (37° C.) is on record as 4 (a score of 4 for detection at 6 hours) and the “hydrolysis score” value (45° C.) is given as 4 (a score of 4 for detection at 6 hours).

With Ac-GASNHKKFL-NH2 [SNHK], the “hydrolysis score” value runs as follows: (37° C.) 4 (a score of 4 for detection at 6 hours); (45° C.) 4 (a score of 4 for detection at 6 hours).
